Test results from US11166942B2 (PRAXIS BIOTECH LLC, priority 2018, dated 2021).
Read-outs that look alike come from different tables or passages of the source.

Legend:
[1] = test system: Chinese hamster ovary (CHO) cells; experiment: Protein translation assay (puromycin labelling, CHO cells); assay type: cell-based; details: media alone = 100%; for % Recovery of protein expression (100 nM test compound): 100 nM compound; for activity at 1 µM: Cricetulus griseus, CHO
Description: Chinese hamster ovary (CHO) cells were maintained at 37° C. and 5% CO2 in Dulbecco's Modified Eagle's Media (DMEM) supplemented with 10% fetal bovine serum, 2 mM L-glutamine, 100 U/ml penicillin, and 100 μg/ml streptomycin. After reaching 80% of confluence, cells were detached and seeded on 6 well plates in complete media, allowed to recover overnight and treated for 2 hours with 1 μM of the test compound (to assess protein synthesis levels in unstressed condition), or for 1 hour with 100 nM or 1 μM of the test compound and then co-treated with 300 nM Tg and 100 nM or 1 μM of the test compound (to assess the recovery of protein synthesis in a stressed condition). Cells treated with Tg alone were used as controls.
After the 2 hours treatments, media were replaced by adding 10 μg/ml puromycin (Sigma Aldrich #P8833) in complete media for 30 min. Media were removed and cells were lysed with SDS-PAGE lysis buffer. Lysates were transferred to 1.5 ml tubes and sonicated for 3 min and total protein amount were quantified using BCA Protein Assay Kit (Pierce). Equal amount of protein (30 μg) was loaded on SDS-PAGE gels. Proteins were transferred onto 0.2 μm PVDF membranes (BioRad) and probed with primary antibodies diluted in Tris-buffered saline supplemented with 0.1% Tween 20 (Merck #S6996184 505) and 3% bovine serum albumin (Rockland #BSA-50).
Puromycin (12D10) (Merck #MABE343) and β-actin (Sigma Aldrich #A5441) antibodies were used as primary antibody. A HRP-conjugated secondary antibody (Rockland) was employed to detect immune-reactive bands using enhanced chemiluminescence (ECL Western Blotting Substrate, Pierce). Quantification of protein bands was done by densitometry using ImageJ software.
Percent increase of protein synthesis in unstressed cells (without Tg treatment) in the presence of media alone or certain test compounds is shown in Table 3 The percentage levels were normalized to the media alone condition, which correspond to 100% protein synthesis.
Percent recovery of protein synthesis in stressed cells (with Tg treatment) due to the test compounds at 100 nM or 1 μM is also shown in Table 3. The levels were normalized to the media alone and to Tg alone conditions, which correspond to 100% and 0% respectively.

ATF4 = ATF4 expression inhibition assay (ATF4 5'UTR luciferase reporter, Tg-stressed HEK293T cells); assay type: cell-based, human; details: Homo sapiens, HEK-293T, 3 h; for inhibition at 0.1 µM: read-out: % ATF4 inhibition at 100 nM; for IC50: read-out: ATF4 inhbition IC50; for inhibition at 1 µM: read-out: % ATF4 inhibition at 1 μM
Description: The ATF4 reporter was prepared by fusing the human full length 5′UTR of ATF4 (NCBI Accession No. BC022088.2) upstream of the firefly luciferase coding sequence lacking the initiator methionine. The fused sequence was cloned into pLenti-EF1a-C-Myc-DDK-IRES-Puro cloning vector (Origen #PS100085) using standard methods. Virus production was carried out by using Lenti-X™ Packaging Single Shots Protocol (Clonetech #631276). Viral particles were used to transduce HEK293T cells (ATCC #CRL-3216, ATCC Manassas, Va.), which were subsequently selected with puromycin to generate stable cell line. Cells were maintained at 37° C. and 5% CO2 in DMEM-F12 (Hyclone #SH30023.02) supplemented with 10% heat-inactivated fetal bovine serum (Gibco #16000-044), 2 mM L-glutamine (Gibco #25030-081), 100 U/ml penicillin, and 100 μg/ml streptomycin (Gibco #15140-122).
HEK293T cells carrying the ATF4 luciferase reporter were plated on 96-well plates (Nunc) at 10,000 cells per well. Cells were treated two days after seeding with 100 nM thapsigargin (Tg) (Sigma-Aldrich #T9033) in the presence of 100 nM or 1 μM. For the assessment of the half-maximal inhibitory concentration (IC50) for selected compounds, dose-response assays were performed. Compounds were serially diluted using DMSO ranging from 0.1 nM to 1 μM. Cells without treatment or cells treated with Tg alone were used as controls. Assay plates containing cells were incubated for 3 hours at 37° C.
Luciferase reactions were performed using Luciferase Assay System (Promega #E1501) as specified by the manufacturer. Luminescence was read with an integration time of 1 s and a gain of 110 using a Cytation-5 multi-mode microplate reader (BioTek). Relative luminescence units were normalized to Tg treatment (0% inhibition) and untreated cells (100% inhibition) and the percentage of ATF4 inhibition was calculated.
Percentages of ATF4 inhibition after induction with Tg in the presence of 100 nM or 1 μM of certain test compounds are shown in Table 2. Also shown in Table 2 is the calculated IC50 for certain test compounds. […] Accordingly, inhibition of ATF4 expression as a result of the test compound indicates suppression of the ISR pathway.

[2] = CHO cells stressed with 300 nM Tg, Tg alone = 0%
[3] = 2 h, unstressed CHO cells, 1 μM, 2 hours, read-out: % Protein synthesis in unstressed cells (1 μM test compound)
[4] = CHO cells stressed with 300 nM Tg, 1 μM compound, Tg alone = 0%, read-out: % Recovery of protein expression (1 μM test compound)
[5] = 100 nM test compound, 100 nM thapsigargin, 3 hours, HEK293T ATF4 luciferase reporter
[6] = 100 nM thapsigargin, 3 hours, HEK293T ATF4 luciferase reporter
[7] = 1 μM test compound, 100 nM thapsigargin, 3 hours, HEK293T ATF4 luciferase reporter

Row | Compound | % Recovery of protein expression (100 nM test compound) [1, 2] | activity at 1 µM [1, 3] | activity at 1 µM [1, 4] | inhibition at 0.1 µM (ATF4; [5]) | IC50 (ATF4; [6]) | inhibition at 1 µM (ATF4; [7]) | inhibition at 0.1 µM (ATF4) | inhibition at 1 µM (ATF4) | IC50 (ATF4)
1 | O=C(COc1ccc(Cl)c(F)c1)NN1CCC(NC(=O)c2ccc3cc(Cl)ccc3n2)CC1 [Compound 3, 6-chloro-N-(1-(2-(4-chloro-3-fluorophenoxy)acetamido)piperidin-4-yl)quinoline-2-carboxamide] | 81.6% | 152% | 190% | 88.1% | 10.6 nM | 92.2% |  |  | 
2 | O=C(COc1ccc(Cl)c(F)c1)NC1CCN(NC(=O)[C@H]2CNc3cc(Cl)ccc3O2)CC1 [Compound 46, (R)-6-chloro-N-(4-(2-(4-chloro-3-fluorophenoxy)acetamido)piperidin-1-yl)-3,4-dihydro-2H-benzo[b][1,4]oxazine-2-carboxamide] |  | 114% | 63.3% | 100% | 3.6 nM | 99.3% |  |  | 
3 | O=C(COc1ccc(Cl)c(F)c1)NN1CCN(C[C@H](O)COc2ccc(Cl)c(F)c2)CC1 (single isomer, unassigned) [Compound 51] |  | 110% | 22.1% | 79.3% | 19.8 nM | 100% |  |  | 
4 | O=C(COc1ccc(Cl)c(F)c1)NC1CCN(NC(=O)c2ccc3cc(Cl)ccc3n2)CC1 [Compound 1, 6-chloro-N-(4-(2-(4-chloro-3-fluorophenoxy)acetamido)piperidin-1-yl)quinoline-2-carboxamide] | 88.6% | 112% | 218% | 93.7% | 3.6 nM | 97.9% |  |  | 
5 | O=C(NN1CCN(C[C@H](O)COc2ccc(Cl)c(F)c2)CC1)c1cc2cc(Cl)ccc2o1 [Compound 49, (S)-5-chloro-N-(4-(3-(4-chloro-3-fluorophenoxy)-2-hydroxypropyl)piperazin-1-yl)benzofuran-2-carboxamide] |  | 82.3% | 70.7% | 55.4% | 69.7 nM | 100% |  |  | 
6 | O=C(NN1CCN(C[C@@H](O)COc2ccc(Cl)c(F)c2)CC1)c1ccc(C(F)(F)F)cn1 [Compound 65, (R)-N-(4-(3-(4-chloro-3-fluorophenoxy)-2-hydroxypropyl)piperazin-1-yl)-5-(trifluoromethyl)picolinamide] |  | 99% | 51.1% | 22.6% | < 1000 nM | 80.5% |  |  | 
7 | O=C(NN1CCC(NC[C@@H](O)COc2ccc(Cl)c(F)c2)CC1)c1ccc2cc(Cl)ccc2n1 [Compound 56, (R)-6-chloro-N-(4-((3-(4-chloro-3-fluorophenoxy)-2-hydroxypropyl)amino)piperidin-1-yl)quinoline-2-carboxamide] |  | 155% | 46.1% | 63.4% | 71.7 nM | 75.6% |  |  | 
8 | O=C(NN1CCC(NCC(O)COc2ccc(Cl)c(F)c2)CC1)c1ccc2cc(Cl)ccc2n1 (stereo not drawn) [Compound 20, 6-chloro-N-(4-((3-(4-chloro-3-fluorophenoxy)-2-hydroxypropyl)amino)piperidin-1-yl)quinoline-2-carboxamide] |  | 155% | 358% |  |  |  | 24.7% | 33.7% | > 10000 nM
9 | O=C(COc1ccc(Cl)c(F)c1)NN1CCN(CC(O)COc2ccc(Cl)c(F)c2)CC1 (stereo not drawn) [Compound 6, 2-(4-chloro-3-fluorophenoxy)-N-(4-(3-(4-chloro-3-fluorophenoxy)-2-hydroxypropyl)piperazin-1-yl)acetamide] | 16.7% | 97.9% | 105% | 75.9% | 30.8 nM | 83.8% |  |  | 
10 | O=C(NN1CCC(NC[C@@H](O)COc2ccc(Cl)c(F)c2)CC1)c1cc2cc(Cl)ccc2o1 [Compound 54] |  | 99.7% | 69.9% |  |  |  | 87.2% | 97.2% | 1.6 nM
11 | O=C(NN1CCN(C[C@@H](O)COc2ccc(Cl)c(F)c2)CC1)c1cnc(C(F)F)cn1 [Compound 66, (R)-N-(4-(3-(4-chloro-3-fluorophenoxy)-2-hydroxypropyl)piperazin-1-yl)-5-(difluoromethyl)pyrazine-2-carboxamide] |  | 84.9% | 17.6% | 0% | > 1000 nM | 0% |  |  | 
12 | COc1ccc2oc(C(=O)NN3CCC(NC[C@@H](O)COc4ccc(Cl)c(F)c4)CC3)cc2c1 [Compound 69, (R)-N-(4-((3-(4-chloro-3-fluorophenoxy)-2-hydroxypropyl)amino)piperidin-1-yl)-5-methoxybenzofuran-2-carboxamide] |  | 129% | 43.1% | 37% | < 1000 nM | 78.1% |  |  | 
13 | O=C(NN1CCN(C[C@@H](O)COc2ccc(Cl)c(F)c2)CC1)c1ccc(Cl)cc1 [Compound 63, (R)-4-chloro-N-(4-(3-(4-chloro-3-fluorophenoxy)-2-hydroxypropyl)piperazin-1-yl)benzamide] |  | 107% | 16.4% | 14.8% | < 1000 nM | 84.6% |  |  | 
14 | O=C(NN1CCN(CCCOc2ccc(Cl)c(F)c2)CC1)C1CNc2cc(Cl)ccc2O1 (stereo not drawn) [Compound 44, 6-chloro-N-(4-(3-(4-chloro-3-fluorophenoxy)propyl)piperazin-1-yl)-3,4-dihydro-2H-benzo[b][1,4]oxazine-2-carboxamide] |  | 146% | 120% |  |  |  | 51.5% | 82% | 151 nM
15 | O=C(NN1CCC(NC[C@H](O)COc2ccc(Cl)c(F)c2)CC1)c1cc2cc(Cl)ccc2o1 [Compound 55, (S)-5-chloro-N-(4-((3-(4-chloro-3-fluorophenoxy)-2-hydroxypropyl)amino)piperidin-1-yl)benzofuran-2-carboxamide] |  | 110% | 49.6% |  |  |  | 58.1% | 80.5% | 102 nM
